Assay results from patent publication US20250179073A1, “TRICYCLIC HETEROCYCLE COMPOUNDS AS IAP ANTAGONISTS” (Ascentage Pharma (Suzhou) Co., Ltd., priority 2022, published 2025).

System: MDA-MB-231 cells
Test: Cell proliferation assay (CellTiter-Glo), MDA-MB-231
Format: cell-based
Details: Homo sapiens, MDA-MB-231, 72 h, 72 h treatment, Celltiter-Glo luminescence
How it was run: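 Compounds tested over ten concentrations ([…]) for 72 h on EVSA-T cells in MEM/10% FBS and MDA-MB-231 cells in RPMI-1640/10% FBS, seeded at 10000/well. Luminescent CellTiter-Glo readout; IC50 fitted after normalisation to controls.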

Row | Compound | IC50
1 | C[C@@H]1CN(CC(=O)N2CC(C)(C)c3c2cc(C(O)c2ccc(F)cc2F)c2ncnn32)[C@@H](CN2CCOC[C@H]2C)CN1 (stereo partly drawn) [Compound 50, 1-(4-((2,4-difluorophenyl)(hydroxy)methyl)-8,8-dimethyl-7,8-dihydro-6H-pyrrolo[2,3-e][1,2,4]triazolo[1,5-a]pyridin-6-yl)-2-((2R,5R)-5-methyl-2-(((R)-3-methylmorpholino)methyl)piperazin-1-yl)ethan-1-one] | > 10000 nM
2 | C[C@@H]1CN(CC(=O)N2CC(C)(C)c3c2cc(Cc2ccc(F)cc2)n2ccnc32)[C@@H](CN2CCOC[C@H]2C)CN1 [Example 24, 1-(5-(4-fluorobenzyl)-9,9-dimethyl-8,9-dihydro-7H-imidazo[1,2-a]pyrrolo[3,2-c]pyridin-7-yl)-2-((2R,5R)-5-methyl-2-(((R)-3-methylmorpholino)methyl)piperazin-1-yl)ethan-1-one] | 240 nM
3 | Cc1nnc2c(Cc3ccc(F)cc3F)cc3c(n12)C(C)(C)CN3C(=O)CN1C[C@@H](C)NC[C@@H]1CN1CCOC[C@H]1C [Compound 156, 1-(4-(2,4-difluorobenzyl)-1,8,8-trimethyl-7,8-dihydro-6H-pyrrolo[2,3-e][1,2,4]triazolo[4,3-a]pyridin-6-yl)-2-((2R,5R)-5-methyl-2-(((R)-3-methylmorpholino)methyl)piperazin-1-yl)ethan-1-one] | 1330 nM
4 | C[C@@H]1CN(CC(=O)N2CC(C)(C)c3c2cc(Cc2ccc(F)cc2)c2ncnn32)C(CN2CCN(CC#N)C3CC32)CN1 (stereo in doubt) [Compound 213, 2-(5-(((2S,5R)-1-(2-(4-(4-fluorobenzyl)-8,8-dimethyl-7,8-di hydro-6H-pyrrolo[2,3-e][1,2,4]triazolo[1,5-a]pyridin-6-yl)-2-oxoethyl)-5-methylpiperazin-2-yl)methyl)-2,5-diazabicyclo[4.1.0]heptan-2-yl)acetonitrile] | 560 nM
5 | CCOC(=O)c1cnn2c3c(cc(Cc4ccc(F)cc4)c12)N(C(=O)CN1C[C@@H](C)NC[C@@H]1CN1CCOC[C@H]1C)CC3(C)C [Compound 120, ethyl 4-(4-fluorobenzyl)-8,8-dimethyl-6-(2-((2R,5R)-5-methyl-2-(((R)-3-methylmorpholino)methyl)piperazin-1-yl)acetyl)-7,8-dihydro-6H-pyrazolo[1,5-a]pyrrolo[2,3-e]pyridine-3-carboxylate] | 400 nM
6 | C[C@@H]1CN(CC(=O)N2CC(C)(C)c3c2cc(Cc2ccc(F)cc2)c2nnc(C(N)=O)n32)[C@@H](CN2CCOC[C@H]2C)CN1 [Compound 145, 4-(4-fluorobenzyl)-8,8-dimethyl-6-(2-((2R,5R)-5-methyl-2-(((R)-3-methylmorpholino)methyl)piperazin-1-yl)acetyl)-7,8-dihydro-6H-pyrrolo[2,3-e][1,2,4]triazolo[4,3-a]pyridine-1-carboxamide] | 450 nM
7 | C[C@@H]1CN(CC(=O)N2CC(C)(C)c3c2cc(C(=O)c2ccc(F)cc2)c2ncnn32)[C@@H](CN2CCOC[C@H]2C)CN1 [Compound 139, 1-(4-(4-fluorobenzoyl)-8,8-dimethyl-7,8-dihydro-6H-pyrrolo[2,3-e][1,2,4]triazolo[1,5-a]pyridin-6-yl)-2-((2R,5R)-5-methyl-2-(((R)-3-methylmorpholino)methyl)piperazin-1-yl)ethan-1-one] | 710 nM
8 | C[C@@H]1CN(CC(=O)N2CC(C)(C)c3c2cc(Cc2ccc(F)cc2)c2cnc(C4CC4)n32)[C@@H](CN2CCOC[C@H]2C)CN1 [Compound 3, 1-(1-cyclopropyl-4-(4-fluorobenzyl)-8,8-dimethyl-7,8-dihydro-6H-imidazo[1,5-a]pyrrolo[2,3-e]pyridin-6-yl)-2-((2R,5R)-5-methyl-2-(((R)-3-methylmorpholino)methyl)piperazin-1-yl)ethan-1-one] | 59 nM
9 | C[C@@H]1CN(CC(=O)N2CC(C)(C)c3c2cc(Cc2ccc(F)cc2)c2nn(C[C@@H]4COCCO4)c(=O)n32)[C@@H](CN2CCOC[C@H]2C)CN1 [Compound 233, 2-(((R)-1,4-dioxan-2-yl)methyl)-4-(4-fluorobenzyl)-8,8-di methyl-6-(2-((2R,5R)-5-methyl-2-(((R)-3-methylmorpholino)methyl)piperazin-1-yl)acetyl)-2,6,7,8-tetrahydro-1H-pyrrolo[2,3-e][1,2,4]triazolo[4,3-a]pyridin-1-one] | 260 nM
10 | CC(=O)N1CCN(C[C@H]2CN[C@H](C)CN2CC(=O)N2CC(C)(C)c3c2cc(Cc2ccc(F)cc2)c2nn(CC(C)(C)O)c(=O)n32)[C@H](C)C1 [Compound 282, 6-(2-((2R,5R)-2-(((R)-4-acetyl-2-methylpiperazin-1-yl)methyl)-5-methylpiperazin-1-yl)acetyl)-4-(4-fluorobenzyl)-2-(2-hydroxy-2-methylpropyl)-8,8-dimethyl-2,6,7,8-tetrahydro-1H-pyrrolo[2,3-e][1,2,4]triazolo[4,3-a]pyridin-1-one] | 660 nM
11 | Cc1nccn1C[C@H]1CN[C@H](C)CN1CC(=O)N1CC(C)(C)c2c1cc(Cc1ccc(F)cc1)c1ncnn21 [Compound 91, 1-(4-(4-fluorobenzyl)-8,8-dimethyl-7,8-dihydro-6H-pyrrolo[2,3-e][1,2,4]triazolo[1,5-a]pyridin-6-yl)-2-((2R,5R)-5-methyl-2-((2-methyl-1H-imidazol-1-yl)methyl)piperazin-1-yl)ethan-1-one] | 80 nM
12 | C[C@@H]1CN(CC(=O)N2CC(C)(C)c3c2cc(Cc2ccc(F)cc2)c2nn(C(CO)CO)c(=O)n32)[C@@H](CN2CCOC[C@H]2C)CN1 [Compound 268, 2-(1,3-dihydroxypropan-2-yl)-4-(4-fluorobenzyl)-8,8-dimethyl-6-(2-((2R,5R)-5-methyl-2-(((R)-3-methylmorpholino)methyl)piperazin-1-yl)acetyl)-2,6,7,8-tetrahydro-1H-pyrrolo[2,3-e][1,2,4]triazolo[4,3-a]pyridin-1-one] | 350 nM
13 | C[C@@H]1CN(CC(=O)N2CC(C)(C)c3c2cc(Cc2ccc(F)cc2)c2nnc(C(F)F)n32)[C@@H](CN2CCOC[C@H]2C)CN1 [Compound 157, 1-(1-(difluoromethyl)-4-(4-fluorobenzyl)-8,8-dimethyl-7,8-dihydro-6H-pyrrolo[2,3-e][1,2,4]triazolo[4,3-a]pyridin-6-yl)-2-((2R,5R)-5-methyl-2-(((R)-3-methylmorpholino)methyl)piperazin-1-yl)ethan-1-one] | 200 nM
14 | C[C@@H]1CN(CC(=O)N2CC(C)(C)c3c2cc(Cc2ccc(F)cc2)c2nnc(N)n32)[C@@H](CN2CCOC[C@H]2C)CN1 [Compound 136, 1-(1-amino-4-(4-fluorobenzyl)-8,8-dimethyl-7,8-dihydro-6H-pyrrolo[2,3-e][1,2,4]triazolo[4,3-a]pyridin-6-yl)-2-((2R,5R)-5-methyl-2-(((R)-3-methylmorpholino)methyl)piperazin-1-yl)ethan-1-one] | 1390 nM
15 | C[C@@H]1CN(CC(=O)N2CC(C)(C)c3c2cc(Cc2ccc(F)cc2)c2nn(CC(N)=O)c(=O)n32)[C@@H](CN2CCOC[C@H]2C)CN1 [Compound 217, 2-(4-(4-fluorobenzyl)-8,8-dimethyl-6-(2-((2R,5R)-5-methyl-2-(((R)-3-methylmorpholino)methyl)piperazin-1-yl)acetyl)-1-oxo-7,8-dihydro-1H-pyrrolo[2,3-e][1,2,4]triazolo[4,3-a]pyridin-2(6H)-yl)acetamide] | 350 nM
16 | C[C@@H]1CN(CC(=O)N2CC(C)(C)c3c2cc(Cc2ccc(F)cc2)c2nc(N4CCNC(=O)C4)nn32)[C@@H](CN2CCOC[C@H]2C)CN1 [Compound 195, 4-(4-(4-fluorobenzyl)-8,8-dimethyl-6-(2-((2R,5R)-5-methyl-2-(((R)-3-methylmorpholino)methyl)piperazin-1-yl)acetyl)-7,8-dihydro-6H-pyrrolo[2,3-e][1,2,4]triazolo[1,5-a]pyridin-2-yl)piperazin-2-one] | 180 nM
17 | C[C@@H]1CN(CC(=O)N2CC(C)(C)c3c2cc(Cc2ccc(F)cc2)c2nc(=O)n(C)n32)[C@@H](CN2CCOC[C@H]2C)CN1 [compound 127, 4-(4-fluorobenzyl)-1,8,8-trimethyl-6-(2-((2R,5R)-5-methyl-2-(((R)-3-methylmorpholino)methyl)piperazin-1-yl)acetyl)-7,8-dihydro-1H-pyrrolo[2,3-e][1,2,4]triazolo[1,5-a]pyridin-2(6H)-one] | 3080 nM
18 | C[C@@H]1CN(CC(=O)N2CC(C)(C)c3c2cc(Cc2ccc(F)cc2)c2nn(CC(C)(C)O)c(=O)n32)[C@@H](CN2CCOCC2(C)C)CN1 [Compound 277, 6-(2-((2R,5R)-2-((3,3-dimethylmorpholino)methyl)-5-methylpiperazin-1-yl)acetyl)-4-(4-fluorobenzyl)-2-(2-hydroxy-2-methylpropyl)-8,8-dimethyl-2,6,7,8-tetrahydro-1H-pyrrolo[2,3-e][1,2,4]triazolo[4,3-a]pyridin-1-one] | 67 nM
19 | C[C@@H]1CN(CC(=O)N2CC(C)(C)c3c2cc(Cc2ccc(F)cc2)c2cc(C(F)(F)F)nn32)[C@@H](CN2CCOC[C@H]2C)CN1 [Compound 150, 1-(4-(4-fluorobenzyl)-8,8-dimethyl-2-(trifluoromethyl)-7,8-dihydro-6H-pyrazolo[1,5-a]pyrrolo[2,3-e]pyridin-6-yl)-2-((2R,5R)-5-methyl-2-(((R)-3-methylmorpholino)methyl)piperazin-1-yl)ethan-1-one] | 490 nM
20 | C[C@@H]1CN(CC(=O)N2CC(C)(C)c3c2cc(Cc2ccc(F)cc2)n2c(C(F)(F)F)nnc32)[C@@H](CN2CCOC[C@H]2C)CN1 [Example 22, 1-(5-(4-fluorobenzyl)-9,9-dimethyl-3-(trifluoromethyl)-8,9-dihydro-7H-pyrrolo[3,2-c][1,2,4]triazolo[4,3-a]pyridin-7-yl)-2-((2R,5R)-5-methyl-2-(((R)-3-methylmorpholino)methyl)piperazin-1-yl)ethan-1-one] | 3710 nM
21 | C[C@@H]1CN(CC(=O)N2CC(C)(C)c3c2cc(Cc2ccc(F)cc2)c2nc(C(F)(F)F)cn32)[C@@H](CN2CCOC[C@H]2CO)CN1 [Compound 160, 1-(4-(4-fluorobenzyl)-8,8-dimethyl-2-(trifluoromethyl)-7,8-dihydro-6H-imidazo[1,2-a]pyrrolo[2,3-e]pyridin-6-yl)-2-((2R,5R)-2-((3-(hydroxymethyl)morpholino)methyl)-5-methylpiperazin-1-yl)ethan-1-one] | 330 nM
